The NIST ThermoML archive (doi:10.1016/j.tca.2012.10.018)
Values joined by “and” are separate entries in the source; they are usually repeats but may differ in a detail not shown here. Equal values may be shown once.

Legend:
[1] = mn = molality of the nth substance listed, in mol/kg; settings: 101 kPa, Liquid; for speed of sound: Sing-around technique in a fixed-path interferometer; for mass density: Vibrating tube method
[2] = 101 kPa, Liquid; for speed of sound: Sing-around technique in a fixed-path interferometer; for mass density: Vibrating tube method

CC1(C)SC2C(NC(=O)C(N)c3ccccc3)C(=O)N2C1C(=O)O (stereo not drawn) + O
[1]
Settings | mass density, m1 = 0.0005 [kg/m3] | mass density, m1 = 0.001 [kg/m3] | mass density, m1 = 0.002 [kg/m3] | mass density, m1 = 0.004 [kg/m3] | speed of sound, m1 = 0.0005 [m/s] | speed of sound, m1 = 0.001 [m/s] | speed of sound, m1 = 0.002 [m/s] | speed of sound, m1 = 0.004
305.15 K | 995.119 | 995.211 | 995.313 | 995.507 | 1513.6 | 1513.8 | 1514.1 | 1514.2 m/s
310.15 K | 993.425 | 993.515 | 993.607 | 993.805 | 1523.4 | 1523.6 | 1524.1 | 1524 m/s
315.15 K | 991.53 | 991.614 | 991.711 | 991.91 | 1531.9 | 1532 | 1532.4 | 1532.4 m/s and 1531.9 m/s

NCC(=O)O [2-aminoacetic acid] + O
[1]
Settings | mass density, m1 = 0.03272 [kg/m3] | mass density, m1 = 0.04933 [kg/m3] | mass density, m1 = 0.0581 [kg/m3] | mass density, m1 = 0.09278 [kg/m3] | mass density, m1 = 0.1392 [kg/m3] | speed of sound, m1 = 0.03272 [m/s] | speed of sound, m1 = 0.04933 [m/s] | speed of sound, m1 = 0.0581 [m/s] | speed of sound, m1 = 0.09278 [m/s] | speed of sound, m1 = 0.1392 [m/s]
305.15 K | 996.158 | 996.664 | 996.929 | – | 999.339 | 1515 | 1515.7 | 1516.1 | 1517.7 | 1519.6
310.15 K | 993.281 | – | 994.038 | 995.054 | – | 1524.9 | 1525.5 | 1525.9 | 1527.3 | 1529
315.15 K | 992.376 | – | 993.122 | 994.122 | 995.416 | 1533.4 | 1534 | 1534.3 | 1535.6 | 1537.2

CC(C)C[C@H](NC(=O)CN)C(=O)O [glycyl-L-leucine] + O
[1]
Settings | mass density, m1 = 0.03308 [kg/m3] | mass density, m1 = 0.05972 [kg/m3] | mass density, m1 = 0.09457 [kg/m3] | mass density, m1 = 0.1115 [kg/m3] | speed of sound, m1 = 0.03308 [m/s] | speed of sound, m1 = 0.05972 [m/s] | speed of sound, m1 = 0.09457 [m/s] | speed of sound, m1 = 0.1115 [m/s]
305.15 K | 996.762 | 998.038 | 999.652 | 1000.42 | 1518.1 | 1521.8 | 1526.8 | 1529.1
310.15 K | 993.879 | 995.132 | 996.722 | 997.479 | 1528 | 1531.6 | 1536.3 | 1538.6
315.15 K | 992.968 | 994.198 | 995.757 | 996.494 | 1536.5 | 1539.9 | 1544.4 | 1546.6

NCC(=O)NCC(=O)O [glycylglycine] + O
[1]
Settings | mass density, m1 = 0.01976 [kg/m3] | mass density, m1 = 0.03098 [kg/m3] | mass density, m1 = 0.06804 [kg/m3] | mass density, m1 = 0.08258 [kg/m3] | mass density, m1 = 0.1196 [kg/m3] | speed of sound, m1 = 0.01976 [m/s] | speed of sound, m1 = 0.03098 [m/s] | speed of sound, m1 = 0.06804 [m/s] | speed of sound, m1 = 0.08258 [m/s] | speed of sound, m1 = 0.1196 [m/s]
305.15 K | 996.227 | 996.841 | 998.809 | 999.555 | 1001.4 | 1515 | 1515.8 | 1518.5 | 1519.5 | 1522.1
310.15 K | 993.362 | 993.969 | 995.921 | 996.662 | 998.494 | 1524.9 | 1525.7 | 1528.1 | 1529.1 | 1531.5
315.15 K | 992.463 | 993.064 | 994.996 | 995.732 | 997.528 | 1533.4 | 1534.1 | 1536.3 | 1537.2 | 1539.4

O [water]
[2]
Settings | mass density [kg/m3] | speed of sound [m/s]
305.15 K | 995.132 | 1513.5
310.15 K | 992.274 | 1523.5
315.15 K | 991.385 | 1532.2

O [water] + CC(C)C[C@H](NC(=O)CN)C(=O)O
[1], m2 = 0
Settings | mass density [kg/m3] | speed of sound [m/s]
305.15 K | 995.132 | 1513.5
310.15 K | 992.274 | 1523.5
315.15 K | 991.385 | 1532.2

O [water] + NCC(=O)NCC(=O)O
[1], m2 = 0
Settings | mass density [kg/m3] | speed of sound [m/s]
305.15 K | 995.132 | 1513.5
310.15 K | 992.274 | 1523.5
315.15 K | 991.385 | 1532.2

O [water] + NCC(=O)O
[1], m2 = 0
Settings | mass density [kg/m3] | speed of sound [m/s]
305.15 K | 995.132 | 1513.5
310.15 K | 992.274 | 1523.5
315.15 K | 991.385 | 1532.2
